Measurements from patent publication US20140234317A1, “METHODS FOR PREVENTING TOXIC DRUG-DRUG INTERACTIONS IN COMBINATION THERAPIES COMPRISING ANTI-ERBB3 AGENTS” (Merrimack Pharmaceuticals, Inc., priority 2011, published 2014).

Legend:
[1] = test system: alpha 1-acid glycoprotein (AAG); conditions: reported; cited from earlier work
[2] = Average plasma concentration of erlotinib co-administered with MM-121; format: in vivo, human; conditions: for Erlotinib Avg Conc.: plasma
Description: The ability of the anti-ErbB3 agent to alter the pharmacokinetics of a co-administered AAGB or TKI can be evaluated by measuring serum drug levels and calculating pharmacokinetic parameters. Pharmacokinetic parameters referred to herein (e.g., Example 1) describe the in vivo characteristics of a drug over time. These include plasma concentration (C), as well as Cmax, Tmax, and AUC. The term “Cmax” refers to the measured plasma concentration of the active agent at the point of maximum, or peak, concentration following an administration. The term “Tmax” refers to the time from drug administration until Cmax is reached. The term “AUC” refers to the area under the curve of a graph of the measured plasma concentration of an active agent vs. time, measured from one time point to another time point. For example AUC0-t is the area under the curve of plasma concentration versus time from time 0 to time t, where time 0 is the time of initial administration of the drug. Time t can be the last time point with measurable plasma concentration for an individual drug.
Patients also received one of two different doses of erlotinib (either 100 mg or 150 mg) administered daily orally. The antibody administration began on Day 1 and continued with weekly doses and the erlotinib administration began on Day 2 and continued with daily doses. Pharmacokinetic parameters were monitored for the duration of treatment, until the patient's cancer progressed or the patient came off the study.
For the erlotinib, the average plasma concentration was measured.

[3] = test system: plasma protein; conditions: TKIs in clinical use; cited from earlier work

| Compound | binding to AAG that can alter bioavailability [1] | plasma protein binding [3] | further results |
| --- | --- | --- | --- |
| C#Cc1cccc(Nc2ncnc3cc(OCCOC)c(OCCOC)cc23)c1 [Erlotinib, erlotinib] | significant binding | high | higher average plasma concentration of erlotinib ([2]; Patient 5 (12 mg/kg MM-121) vs Patient 2 (6 mg/kg MM-121), each 150 mg erlotinib): approximately 2.19 fold; higher average plasma concentration of erlotinib ([2]; Patient 8 (12 mg/kg MM-121) vs Patient 1 (6 mg/kg MM-121), each 100 mg erlotinib): approximately 2.02 fold; Erlotinib Avg Conc. ([2]; Subject 1, erlotinib 100 mg daily oral + MM-121 6 mg/kg weekly i.v.): 384 ng/mL; Erlotinib Avg Conc. ([2]; Subject 2, erlotinib 150 mg daily oral + MM-121 6 mg/kg weekly i.v.): 624 ng/mL; Erlotinib Avg Conc. ([2]; Subject 3, erlotinib 150 mg daily oral + MM-121 6 mg/kg weekly i.v.): 569 ng/mL; Erlotinib Avg Conc. ([2]; Subject 4, erlotinib 150 mg daily oral + MM-121 6 mg/kg weekly i.v.): 656 ng/mL; Erlotinib Avg Conc. ([2]; Subject 5, erlotinib 150 mg daily oral + MM-121 12 mg/kg weekly i.v.): 1370 ng/mL; Erlotinib Avg Conc. ([2]; Subject 6, erlotinib 150 mg daily oral + MM-121 12 mg/kg weekly i.v.): 1165.3 ng/mL; Erlotinib Avg Conc. ([2]; Subject 7, erlotinib 100 mg daily oral + MM-121 12 mg/kg weekly i.v.): 2395.6 ng/mL; Erlotinib Avg Conc. ([2]; Subject 8, erlotinib 100 mg daily oral + MM-121 12 mg/kg weekly i.v.): 777.5894 ng/mL; higher average plasma concentration of erlotinib ([2]; patients treated with 12 mg/kg anti-ErbB3 antibody compared to patients treated with 6 mg/kg): 2-3 fold |
| CN(C)C/C=C/C(=O)Nc1cc2c(Nc3ccc(F)c(Cl)c3)ncnc2cc1O[C@H]1CCOC1 [afatinib] |  | high |  |
| Cc1nc(Nc2ncc(C(=O)Nc3c(C)cccc3Cl)s2)cc(N2CCN(CCO)CC2)n1 [dasatinib] |  | high |  |
| COc1cc2ncnc(Nc3ccc(F)c(Cl)c3)c2cc1OCCCN1CCOCC1 [gefitinib] | significant binding | high |  |
| Cc1ccc(NC(=O)c2ccc(CN3CCN(C)CC3)cc2)cc1Nc1nccc(-c2cccnc2)n1 [imatinib] | significant binding |  |  |
| CS(=O)(=O)CCNCc1ccc(-c2ccc3ncnc(Nc4ccc(OCc5cccc(F)c5)c(Cl)c4)c3c2)o1 [lapatinib] | significant binding | high |  |
| Cc1cn(-c2cc(NC(=O)c3ccc(C)c(Nc4nccc(-c5cccnc5)n4)c3)cc(C(F)(F)F)c2)cn1 [nilotinib] |  | high |  |
| Cc1ccc(Nc2nccc(N(C)c3ccc4c(C)n(C)nc4c3)n2)cc1S(N)(=O)=O [pazopinib] |  | high |  |
| CNC(=O)c1cc(Oc2ccc(NC(=O)Nc3ccc(Cl)c(C(F)(F)F)c3)cc2)ccn1 [sorafenib] |  | high |  |
| CCN(CC)CCNC(=O)c1c(C)[nH]c(/C=C2\C(=O)Nc3ccc(F)cc32)c1C [sunitinib] |  | high |  |
